According to US20070003641A1, “Synergistic pharmaceutical compositions useful in prevention and treatment of beta-amyloid protein-induced disease” (priority 2005, published 2007):

Tests used:
[1] = tested on: IMR32 human neuroblastoma cells; assay: MTT reduction assay: protection of IMR32 cells from βA insult; type: cell-based
Method: (§1) The neuronal cell protection by the extract or combination of extracts was determined by observing the differences in the cell viability of βA (both 25-35 and 1-42) treated cells, βA (both 25-35 and 1-42) treated cells further including an extract or a combination of extracts according to the invention, and a DMSO control.
(§2) The degree of βA insult was measured by 3-[4,5-dimethylthiazol-2-yl]-2,5-diphenyltetrazolium bromide (MTT) reduction assay. See Kim et al., Neurosci Lett 303, 57 (2001), Park et al., J Nat Prod 65, 1227 (2002) and Kim et al., Plant Medica 68, 375 (2002). The detection of cell growth or cell death can be determined by observing the conversion of MTT to the colored product, MTT formazan, the concentration of which can be measured colorimetrically at 550 nm. See Kim et al., Neurosci Lett 303, 57 (2001).
(§3) The extract or combination of extracts' ability to protect PC12 cells from βA insult was investigated according to the published procedure. See Kim et al., Neurosci Lett 303, 57 (2001), Park et al., J Nat Prod 65, 1227 (2002) and Kim et al., Plant Medica 68, 375 (2002). For the bioassay, 90 μL of exponentially growing cells (2,000 cells per mL) were plated in 96-well tissue culture plates. Cells were incubated with βA(1-42) (2.0 μg/mL, prepared from a stock solution (1.0 mg/mL in dimethyl sulfoxide (DMSO))) and test compound at various concentrations (50, 10, 2, 0.4, and 0.08 μg/mL) for 24 hours. The final DMSO concentration was less than 1%. The extract or combination of extracts' ability to protect PC12 cells from βA(1-42) insult was determined by measuring the cell's potential to reduce MTT with respect to the treatment of cells with 1% DMSO only and the treatment of cells with […] βA(1-42) and 1% DMSO without the presence of test extract or a combination of extracts. After the incubation of cells in MTT solution (25 μL per well, 1 mg/mL stock solution) for 1 h at 37° C., 100 μL Lysing buffer (50% aqueous dimethylformamide (DMF) and 20% sodium dodecyl sulfate (SDS) at pH 4.7) was added and incubated overnight at 37° C. Optical density of the resulting solutions was colorimetrically determined at 550 nm using a microplate reader. Dose-response curves were prepared and the results were expressed as ED50 values in μg/mL (Table 1). Curcumin and (±)-α-tocopherol (vitamin-E) were used as reference compounds. Bioassay using βA(25-35) was similarly performed. The extract or combination of extracts' ability to protect IMR32 and HUVEC cells from βA insult was also similarly investigated.
(§4) PC12 cells were obtained from the American Type Culture Collection (Rockville, Md.). Cells were routinely cultured on a polystyrene-coated Corning tissue culture plate (Corning, New York, N.Y.). Culture media and supplements were obtained from Life Technologies (Grand Island, N.Y.). Cells were maintained in high glucose Dulbecco's modified Eagle medium, 10% horse serum, 5% fetal calf serum, and 1% penicillin/streptomycin. See Kim et al., Neurosci Lett 303, 57 (2001), Park et al., J Nat Prod 65, 1227 (2002) and Kim et al., Plant Medica 68, 375 (2002). IMR32 human neuroblastoma cells were obtained from the American Type Culture Collection (ATCC). Normal umbilical human vein endothelial (HUVEC) cells were obtained from Clonetics (San Diego, Calif.). Cells were routinely cultured on a polystyrene-coated Corning tissue culture plate (Corning, New York, N.Y.). IMR32 cells were grown in high glucose Dulbecco's Modified Eagle Medium (DMEM), 10% horse serum, 5% fetal calf serum, and 1% penicillin/streptomycin. HUVEC cells were grown in EGM-2 Bullet Kit (Clonetics, San Diego, Calif.). For the bioassay using βA(25-35), 100 μl of exponentially growing IMR32 and HUVEC cells (2,000 and 500 cells per ml, respectively) were plated in 96-well tissue culture plates. A different number of cells per ml was used for the experiment because of the cell size difference of HUVEC cells with respect to IMR32 cells and PC12 cells. […]

PC12 cells = assay: MTT reduction assay: protection of PC12 cells from βA insult; type: cell-based; settings: 24 hours
Method: as §1, §2, §3, §4

HUVEC cells = assay: MTT reduction assay: protection of HUVEC cells from βA insult; type: cell-based, human
Method: as §1, §2, §3, §4

[2] = tested on: PC12, IMR32, and HUVEC cells; assay: Cell protection from βA peptide insult, stated in words; type: cell-based
Method: as §1
as §2, with “See Kim et al., Neurosci Lett 303, 57 (2001).” left out
The extract or combination of extracts' ability to protect PC12 cells from βA insult was investigated according to the published procedure. […] The extract or combination of extracts' ability to protect PC12 cells from βA(1-42) insult was determined by measuring the cell's potential to reduce MTT with respect to the treatment of cells with 1% DMSO only and the treatment of cells with 1.0 μg/mL βA(1-42) and 1% DMSO without the presence of test extract or a combination of extracts. […] Optical density of the resulting solutions was colorimetrically determined at 550 nm using a microplate reader. […]

Molecule	ED50, cell protection against βA insult ([1]; βA(1-42)) [µg/mL]	ED50, cell protection against βA insult ([1]; βA(25-35)) [µg/mL]	ED50, cell protection against βA insult (PC12 cells; βA(1-42)) [µg/mL]	ED50, cell protection against βA insult (PC12 cells; βA(25-35)) [µg/mL]	ED50, cell protection against βA insult (HUVEC cells; βA(1-42)) [µg/mL]	ED50, cell protection against βA insult (HUVEC cells; βA(25-35)) [µg/mL]	protection of cells from βA peptide insult (in words) [2]
CCCCC/C=C/C(=O)CCc1ccc(O)c(OC)c1 [6-shogaol [6S], 6-shogaol]	6.1	6.3	5.7	5.4	5.5	5.9	–
COc1cc(C=CC(=O)CC(=O)C=Cc2ccc(O)c(OC)c2)ccc1O [curcumin, 1,7-bis(4-hydroxy-3-methoxyphenyl)-1,6-heptadiene-3,5-dione, reference compound]	6.3	7.4	7.1	6.7	6.8	6.2	–
(±)-α-tocopherol [reference compound]	>50	>50	>50	>50	>50	>50	–
CC(C)c1cc2c(c(O)c1O)[C@@]13CCCC(C)(C)[C@@H]1[C@H](OC3=O)[C@H]2O [RS-9]	35.5	38.3	35.4	33.2	34.2	31.0	–
CC(C)c1cc(C=O)c2c(c1O)OC(=O)[C@@]21CCCC(C)(C)[C@@H]1C=O [RS-8]	14.6	15.2	13.3	11.6	16.7	15.5	–
CCCCCCCCC=CC(=O)CCc1ccc(O)cc1 [(50), [9]-demothoxyshogaol]	–	–	–	–	–	–	effectively protected cells from βA peptide insult
CCCCCCCCCCC(=O)CCc1ccc(O)c(OC)c1 [(45), [9]-dihydroshogaol]	–	–	–	–	–	–	effectively protected cells from βA peptide insult
CC(C)c1cc2c(c(O)c1O)[C@@]13CCCC(C)(C)[C@@H]1[C@@H](O)C2OC3=O [RS-7]	3.4	2.9	3.1	2.3	3.5	3.2	–
